In US11060715B2, “Ex vivo proliferation of epithelial cells” (PROPAGENIX INC., priority 2015, dated 2021):

Tests used:
[1] = system: bronchial epithelial cells; experiment: Effect of calcium content on bronchial epithelial cells in KSFM plus A83-01 and Y-27632 (morphology, TEER); type: cell-based, human
Description: Effects of culture media calcium content on cell behavior were assessed for epithelial cells cultured in KSFM plus A83-01 and Y-27632. Human bronchial epithelial cells were grown KSFM (with 90 μM CaCl2) plus A83-01 and Y-27632. These cells dispersed throughout the culture vessel (FIG. 28, left panel), and few cells formed intercellular connections, even when they were in close proximity to each other. […] Cells in the center of the patches tended to pile up, and boundaries between individual cells generally were not discernable. In certain instances, abnormal elongations formed between clusters.
In a further investigation, effects of culture media calcium content on intercellular junctions was assessed for bronchial epithelial cells cultured in KSFM plus A83-01 and Y-27632. Intercellular junctions were assessed according to paracellular flow of ions as measured by trans-epithelium electric resistance (TEER). […] Bronchial epithelial cells were plated on porous membrane support ([…], Corning, 354474) and maintained for 7 days when the membrane was covered with culture medium (submerged phase, grayed box in FIG. 29, top panel). On day 8, the medium was removed from the apical side of the membrane, and the cells were exposed to air to induce further differentiation. […]

[2] = system: human foreskin keratinocytes (HFK); experiment: Differentiation of keratinocytes at high CaCl2 in KSFM+A+Y (ZO-1 staining, TEER, H&E); type: cell-based
Description: Specifically, late passage human foreskin keratinocytes (HFK) cultured in KSFM supplemented with 1 μM A83-01 and 5 μM Y-27632 (KSFM+A+Y) at low CaCl2 (90 μM) were allowed to reach confluence. The cells remained in the KSFM+A+Y conditions and the CaCl2 concentration was raised to 1.5 mM to induce differentiation.
Keratinocytes established increasing transmembrane electric resistance (TEER) over time in air-liquid-interface differentiation, in the presence of high concentration (1.5 mM) of CaCl2 in KSFM plus A 83-01 and Y-27632. Specifically, human foreskin keratinocytes (HFK) previously cultured in KSFM supplemented with 1 μM A83-01 and 5 μM Y-27632 (KSFM+A+Y) at low CaCl2 (90 μM) were plated on a porous membrane support ([…], Corning, 354474) and maintained for 14 days. The cells were covered by culture medium (KSFM+A+Y and 1.5 mM of CaCl2) for the first day (submerged phase, grayed box in FIG. 34) and exposed to air for the remaining days.
Keratinocytes formed an epidermal-like structure over time in air-liquid-interface differentiation, in the presence of high concentration (1.5 mM) of CaCl2 in KSFM plus A 83-01 and Y-27632. Specifically, human foreskin keratinocytes (HFK) previously cultured in KSFM supplemented with 1 μM A83-01 and 5 μM Y-27632 (KSFM+A+Y) at low CaCl2 (90 μM) were plated on a porous membrane support ([…], Corning, 354474) and maintained for 14 days. […]

[Ca+2].[Cl-].[Cl-] [CaCl2]
cell behavior (morphology) ([1]; 1 mM CaCl2 in KSFM plus A83-01 and Y-27632): aggregate into tight clusters
trans-epithelium electric resistance (TEER) ([1]; high concentration (1 mM) in KSFM plus A 83-01 and Y-27632): increasing TEER
epidermal-like structure formation (H&E) ([2]; 1.5 mM CaCl2 in KSFM+A+Y, air-liquid-interface, day 14): differentiated into multi-layer structures
tight junction formation (ZO-1 staining) ([2]; CaCl2 raised to 1.5 mM in KSFM+A+Y): Tight junction formation was observed
